According to the supplement of paper PMC10307832:

Key:
Test in all cases: relative viability (nuclei count vs DMSO), 5 days (fraction); higher = more cells survive
[1] = compound: O=C(O)c1ccc2c(c1)nc(Nc1cccc(Cl)c1)c1ccncc12 [Silmitasertib]
In short: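 For viability, nuclei in each treated well were divided by nuclei in vehicle wells and the median across plates was taken. Lung cancer cell lines in 1536-well plates were pinned with five library-drug doses (not always all listed) spaced by √10, cultured 5 days without medium change, and imaged at 4× after Hoechst staining, with plates passing only at control CV below 25% and at least one doubling.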

[2] = compound: O=C(O)c1ccc2c(c1)nc(Nc1cccc(Cl)c1)c1ccncc12 [Silmitasertib] + Nc1ncn([C@H]2C[C@H](O)[C@@H](CO)O2)c(=O)n1 [Decitabine] (partner 2 µM)
In short: (§1)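 Dosing by pin tool came one day after lung cancer cell lines were seeded in 1536-well plates, using either one drug or a fixed anchor-drug dose plus five library-drug doses (not always all listed) in √10 steps. After 5 days, nuclei were counted on 4× images. Relative viability is treated-well nuclei count divided by vehicle-well nuclei count, and values are medians of duplicate plates.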

[3] = compound: O=C(O)c1ccc2c(c1)nc(Nc1cccc(Cl)c1)c1ccncc12 [Silmitasertib] + Nc1nc2[nH]cc(CCc3ccc(C(=O)N[C@@H](CCC(=O)O)C(=O)O)cc3)c2c(=O)[nH]1 [Pemetrexed] (partner 0.2 µM)
In short: as §1

[4] = compound: O=C(O)c1ccc2c(c1)nc(Nc1cccc(Cl)c1)c1ccncc12 [Silmitasertib] + CC(=O)Nc1cccc(-n2c(=O)n(C3CC3)c(=O)c3c(Nc4ccc(I)cc4F)n(C)c(=O)c(C)c32)c1 [Trametinib] (partner 0.02 µM)
In short: as §1

[5] = compound: O=C(O)c1ccc2c(c1)nc(Nc1cccc(Cl)c1)c1ccncc12 [Silmitasertib] + Cc1nc(Nc2ncc(C(=O)Nc3c(C)cccc3Cl)s2)cc(N2CCN(CCO)CC2)n1 [Dasatinib] (partner 0.075 µM)
In short: as §1

[6] = compound: O=C(O)c1ccc2c(c1)nc(Nc1cccc(Cl)c1)c1ccncc12 [Silmitasertib] + Cc1cc(Nc2cc(N3CCN(C)CC3)nc(Sc3ccc(NC(=O)C4CC4)cc3)n2)n[nH]1 [Tozasertib] (partner 0.1 µM)
In short: as §1

[7] = compound: O=C(O)c1ccc2c(c1)nc(Nc1cccc(Cl)c1)c1ccncc12 [Silmitasertib] + O=C(CCCCCCC(=O)Nc1ccccc1)NO [Vorinostat] (partner 1 µM)
In short: as §1

[8] = compound: O=C(O)c1ccc2c(c1)nc(Nc1cccc(Cl)c1)c1ccncc12 [Silmitasertib] + COc1cc2c(Oc3ccc(NC(=O)C4(C(=O)Nc5ccc(F)cc5)CC4)cc3F)ccnc2cc1OCCCN1CCOCC1 [Foretinib] (partner 0.25 µM)
In short: as §1

[9] = compound: O=C(O)c1ccc2c(c1)nc(Nc1cccc(Cl)c1)c1ccncc12 [Silmitasertib] + NC(=O)Nc1cc(-c2cccc(F)c2)sc1C(=O)N[C@H]1CCCNC1 [AZD7762] (partner 0.2 µM)
In short: as §1

[10] = compound: O=C(O)c1ccc2c(c1)nc(Nc1cccc(Cl)c1)c1ccncc12 [Silmitasertib] + CC(=O)c1c(C)c2cnc(Nc3ccc(N4CCNCC4)cn3)nc2n(C2CCCC2)c1=O [Palbociclib] (partner 0.5 µM)
In short: as §1

[11] = compound: O=C(O)c1ccc2c(c1)nc(Nc1cccc(Cl)c1)c1ccncc12 [Silmitasertib] + COc1cccc2cc(-c3nc([C@H]4CC[C@H](C(=O)O)CC4)n4ncnc(N)c34)[nH]c12 [OSI-027] (partner 0.5 µM)
In short: as §1

[12] = compound: O=C(O)c1ccc2c(c1)nc(Nc1cccc(Cl)c1)c1ccncc12 [Silmitasertib] + N=C(N)NC(=N)NCCc1ccccc1 [Phenformin] (partner 250 µM)
In short: as §1

[13] = compound: O=C(O)c1ccc2c(c1)nc(Nc1cccc(Cl)c1)c1ccncc12 [Silmitasertib] + O=C(c1cc(Cc2n[nH]c(=O)c3ccccc23)ccc1F)N1CCN(C(=O)C2CC2)CC1 [Olaparib] (partner 8 µM)
In short: as §1

[14] = compound: O=C(O)c1ccc2c(c1)nc(Nc1cccc(Cl)c1)c1ccncc12 [Silmitasertib] + CCNC(=O)c1noc(-c2cc(C(C)C)c(O)cc2O)c1-c1ccc(CN2CCOCC2)cc1 [Luminespib] (partner 0.01 µM)
In short: as §1

## SW 900
[1]; 0.04 µM
  relative viability: 1.02
[1]; 0.4 µM
  relative viability: 0.503
[1]; 1.265 µM
  relative viability: 0.651
[1]; 4 µM
  relative viability: 0.295
[2]; first compound 0.04 µM
  relative viability: 0.499
[2]; first compound 0.4 µM
  relative viability: 0.422
[2]; first compound 1.265 µM
  relative viability: 0.377
[2]; first compound 4 µM
  relative viability: 0.347
[3]; first compound 0.04 µM
  relative viability: 0.493
[3]; first compound 0.4 µM
  relative viability: 0.463
[3]; first compound 1.265 µM
  relative viability: 0.464
[3]; first compound 4 µM
  relative viability: 0.258
[4]; first compound 0.04 µM
  relative viability: 0.929
[4]; first compound 0.4 µM
  relative viability: 0.624
[4]; first compound 1.265 µM
  relative viability: 0.647
[4]; first compound 4 µM
  relative viability: 0.492
[5]; first compound 0.04 µM
  relative viability: 0.82
[5]; first compound 0.4 µM
  relative viability: 0.316
[5]; first compound 1.265 µM
  relative viability: 0.614
[5]; first compound 4 µM
  relative viability: 0.398
[6]; first compound 0.04 µM
  relative viability: 0.649
[6]; first compound 0.4 µM
  relative viability: 0.413
[6]; first compound 1.265 µM
  relative viability: 0.38
[6]; first compound 4 µM
  relative viability: 0.349
[7]; first compound 0.04 µM
  relative viability: 0.585
[7]; first compound 0.4 µM
  relative viability: 0.403
[7]; first compound 1.265 µM
  relative viability: 0.446
[7]; first compound 4 µM
  relative viability: 0.172
[8]; first compound 0.04 µM
  relative viability: 1.05
[8]; first compound 0.4 µM
  relative viability: 0.477
[8]; first compound 1.265 µM
  relative viability: 0.817
[8]; first compound 4 µM
  relative viability: 0.424
[9]; first compound 0.04 µM
  relative viability: 0.72
[9]; first compound 0.4 µM
  relative viability: 0.578
[9]; first compound 1.265 µM
  relative viability: 0.691
[9]; first compound 4 µM
  relative viability: 0.338
[10]; first compound 0.04 µM
  relative viability: 0.538
[10]; first compound 0.4 µM
  relative viability: 0.624
[10]; first compound 1.265 µM
  relative viability: 0.507
[10]; first compound 4 µM
  relative viability: 0.492
[11]; first compound 0.04 µM
  relative viability: 0.648
[11]; first compound 0.4 µM
  relative viability: 0.304
[11]; first compound 1.265 µM
  relative viability: 0.388
[11]; first compound 4 µM
  relative viability: 0.207
[12]; first compound 0.04 µM
  relative viability: 0.817
[12]; first compound 0.4 µM
  relative viability: 0.34
[12]; first compound 1.265 µM
  relative viability: 0.452
[12]; first compound 4 µM
  relative viability: 0.24
[13]; first compound 0.04 µM
  relative viability: 0.883
[13]; first compound 0.4 µM
  relative viability: 0.701
[13]; first compound 1.265 µM
  relative viability: 0.739
[13]; first compound 4 µM
  relative viability: 0.568
[14]; first compound 0.04 µM
  relative viability: 0.188
[14]; first compound 0.4 µM
  relative viability: 0.167
[14]; first compound 1.265 µM
  relative viability: 0.157
[14]; first compound 4 µM
  relative viability: 0.178
